From ChEMBL document CHEMBL1154628, “Discovery and optimization of substituted 1-(1-phenyl-1H-pyrazol-3-yl)methanamines as potent and efficacious type II calcimimetics” (J Med Chem, 2009)
Active and inactive are the calls of the source. No cut-off for these calls is given here.

Key:
[1] = molecular target: T1, Extracellular calcium-sensing receptor (Homo sapiens, UniProt P41180); experiment: Activity at human CaSR expressed in HEK293 cells assessed as calcium release by FLIPR assay; type: functional, cell-based
T1 sequence (P41180 whole entry): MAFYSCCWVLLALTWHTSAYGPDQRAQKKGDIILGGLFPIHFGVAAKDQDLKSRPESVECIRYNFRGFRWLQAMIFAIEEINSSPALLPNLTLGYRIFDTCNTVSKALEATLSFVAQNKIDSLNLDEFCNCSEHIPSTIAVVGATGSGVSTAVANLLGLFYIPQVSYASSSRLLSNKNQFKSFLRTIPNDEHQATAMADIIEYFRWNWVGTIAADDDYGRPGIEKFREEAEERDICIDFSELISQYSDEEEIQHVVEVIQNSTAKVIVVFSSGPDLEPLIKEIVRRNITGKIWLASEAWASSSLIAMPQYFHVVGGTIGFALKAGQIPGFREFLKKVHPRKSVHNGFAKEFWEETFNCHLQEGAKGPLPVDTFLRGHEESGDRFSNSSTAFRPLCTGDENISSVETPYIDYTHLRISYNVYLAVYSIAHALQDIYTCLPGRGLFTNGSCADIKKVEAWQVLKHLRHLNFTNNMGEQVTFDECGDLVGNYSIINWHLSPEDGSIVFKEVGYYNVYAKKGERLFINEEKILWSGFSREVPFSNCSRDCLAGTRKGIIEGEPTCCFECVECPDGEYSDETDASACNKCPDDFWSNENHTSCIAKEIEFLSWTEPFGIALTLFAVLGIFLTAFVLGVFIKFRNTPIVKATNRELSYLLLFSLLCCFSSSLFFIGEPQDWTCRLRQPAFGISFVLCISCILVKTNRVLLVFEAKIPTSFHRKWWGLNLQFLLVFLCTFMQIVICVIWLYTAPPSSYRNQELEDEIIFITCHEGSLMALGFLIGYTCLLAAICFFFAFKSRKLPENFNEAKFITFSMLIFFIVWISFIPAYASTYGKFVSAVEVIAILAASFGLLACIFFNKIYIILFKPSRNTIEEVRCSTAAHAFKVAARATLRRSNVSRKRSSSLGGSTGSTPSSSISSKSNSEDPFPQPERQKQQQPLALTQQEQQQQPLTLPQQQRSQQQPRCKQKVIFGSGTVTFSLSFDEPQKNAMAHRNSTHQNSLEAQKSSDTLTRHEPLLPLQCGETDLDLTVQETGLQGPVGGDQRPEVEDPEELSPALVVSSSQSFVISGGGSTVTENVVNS

[2] = Mean residence time in Sprague-Dawley rat at 0.5 mg/kg, iv; type: ADME, organism-based; set-up: dose 0.5 mg/kg, route intravenous; details: in vivo
[3] = Volume of distribution at steady state in Sprague-Dawley rat at 0.5 mg/kg, iv; type: ADME, organism-based; set-up: dose 0.5 mg/kg, route intravenous; details: in vivo, read-out: Vdss
Rattus norvegicus [4] = experiment: Oral bioavailability in Sprague-Dawley rat at 2 mg/kg; type: ADME, organism-based; details: in vivo
Rattus norvegicus [5] = experiment: AUC in Sprague-Dawley rat at 2 mg/kg, po; type: ADME, organism-based, Plasma; set-up: dose 2 mg/kg, route oral; details: in vivo
Rattus norvegicus [6] = experiment: Inhibition of hyperparathyroidism in Sprague-Dawley rat pharmacodynamic model assessed as PTH levels at 3 mg/kg, po; type: functional
Rattus norvegicus [7] = experiment: Clearance in Sprague-Dawley rat at 0.5 mg/kg, iv; type: ADME, organism-based; set-up: dose 0.5 mg/kg, route intravenous; details: in vivo
Rattus norvegicus [8] = experiment: Cmax in Sprague-Dawley rat at 2 mg/kg, po; type: ADME, organism-based; set-up: dose 2 mg/kg, route oral; details: in vivo
Rattus norvegicus [9] = experiment: Inhibition of hyperparathyroidism in Sprague-Dawley rat pharmacodynamic model assessed as decrease in PTH levels at 30 mg/kg, po; type: functional, organism-based; set-up: dose 30 mg/kg; details: Thyroid gland

| SMILES | EC50 [1] [nM] | also measured |
| --- | --- | --- |
| C[C@@H](N[C@H](C)c1ccn(-c2ccc(C(F)(F)F)cc2)n1)c1ccccc1 | 233 | – |
| CC[C@@H](N[C@H](C)c1ccccc1)c1ccn(-c2ccc(C(F)(F)F)cc2)n1 | 1180 | – |
| CC(C)[C@@H](N[C@H](C)c1ccccc1)c1ccn(-c2ccc(C(F)(F)F)cc2)n1 | 2340 | – |
| COc1cc([C@@H](C)N[C@H](C)c2ccccc2)nn1-c1ccc(C(F)(F)F)cc1 | 70 | – |
| COc1cc([C@@H](C)N[C@H](C)c2cccc(Cl)c2)nn1-c1ccc(-c2nnn[nH]2)cc1 | > 5000 | – |
| COc1cc([C@@H](C)N[C@H](C)c2cccc(Cl)c2)nn1-c1ccc(C(F)(F)F)cc1 | 41 | – |
| C[C@@H](N[C@H](C)c1ccn(-c2ccc(C(F)(F)F)cc2)n1)c1cccc(Cl)c1 | 92 | – |

More lines, main results first:

| EC50 [1] [nM] | SMILES | also measured |
| --- | --- | --- |
| > 5000 | C[C@@H](NCc1cnc(-c2ccccc2)s1)c1ccccc1 | – |
| 1920 | COc1cc([C@@H](C)N[C@H](C)c2cccc(Cl)c2)nn1-c1ccc(C(=O)O)cc1 | – |
| 23 | COc1cc([C@@H](C)N[C@H](C)c2cccc(Cl)c2)nn1-c1ccc(Br)cc1 | MRT [2]: 11.8 h; Vd [3]: 7 L/kg; F (Rattus norvegicus [4]): 24%; AUC (Rattus norvegicus [5]): 444 ng·h/mL; Activity (Rattus norvegicus [6]): <3 pg/mL; CL (Rattus norvegicus [7]): 21.7 mL/min/kg |
| > 5000 | C[C@@H](NCc1nc(-c2ccccc2)co1)c1ccccc1 | – |
| > 5000 | C[C@@H](NCc1nc(-c2ccccc2)c[nH]1)c1ccccc1 | – |
| 1580 | C[C@@H](NCc1ccn(-c2ccccc2)n1)c1ccccc1 | – |
| 194 | COc1cccc([C@@H](C)NCCCc2ccccc2Cl)c1 [TECALCET] | MRT [2]: 1.74 h; Vd [3]: 6.8 L/kg; Cmax (Rattus norvegicus [8]): 4.2 ng/mL; Activity (Rattus norvegicus [9]): Active; F (Rattus norvegicus [4]): 5%; AUC (Rattus norvegicus [5]): 22 ng·h/mL; CL (Rattus norvegicus [7]): 65 mL/min/kg |
| 148 | C[C@@H](N[C@H](C)c1ccn(-c2ccc(C(F)(F)F)cc2)n1)c1cccc(F)c1 | – |
| > 5000 | C[C@@H](NCc1nc(-c2ccccc2)cn1C)c1ccccc1 | – |
| > 5000 | C[C@@H](NCc1nc(-c2ccccc2)cs1)c1ccccc1 | – |
| 57 | COc1cc([C@@H](C)N[C@H](C)c2cccc(Cl)c2)nn1-c1cccc(Cl)c1 | – |
